The supplement of paper PMC10307832

Legend:
Assay in all cases: relative viability (nuclei count vs DMSO), 5 days (fraction); higher = more cells survive
Vemurafenib + Navitoclax = compound: CCCS(=O)(=O)Nc1ccc(F)c(C(=O)c2c[nH]c3ncc(-c4ccc(Cl)cc4)cc23)c1F [Vemurafenib] + CC1(C)CCC(c2ccc(Cl)cc2)=C(CN2CCN(c3ccc(C(=O)NS(=O)(=O)c4ccc(N[C@H](CCN5CCOCC5)CSc5ccccc5)c(S(=O)(=O)C(F)(F)F)c4)cc3)CC2)C1 [Navitoclax] (partner 0.5 µM)
Procedure, shortened: (§1)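 Nuclei were stained with Hoechst during a one-step fixation (final 0.05% Triton X-100, 1% formaldehyde, 1 ug/ml Hoechst) carried out 5 days after dosing, then counted on 4× images. The cells, lung cancer lines in 1536-well plates, had been dosed by pin tool the day after seeding with one drug alone or a fixed anchor-drug dose plus five library-drug doses (not always all listed) in √10 steps. Relative viability is the nuclei count in treated wells divided by that in vehicle wells, and each value is the median of duplicate plates.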

Vemurafenib + Alpelisib = compound: CCCS(=O)(=O)Nc1ccc(F)c(C(=O)c2c[nH]c3ncc(-c4ccc(Cl)cc4)cc23)c1F [Vemurafenib] + Cc1nc(NC(=O)N2CCC[C@H]2C(N)=O)sc1-c1ccnc(C(C)(C)C(F)(F)F)c1 [Alpelisib] (partner 2 µM)
Procedure, shortened: as §1

OSI-027 + Foretinib = compound: COc1cccc2cc(-c3nc([C@H]4CC[C@H](C(=O)O)CC4)n4ncnc(N)c34)[nH]c12 [OSI-027] + COc1cc2c(Oc3ccc(NC(=O)C4(C(=O)Nc5ccc(F)cc5)CC4)cc3F)ccnc2cc1OCCCN1CCOCC1 [Foretinib] (partner 0.25 µM)
Procedure, shortened: as §1

OSI-027 + Alpelisib = compound: COc1cccc2cc(-c3nc([C@H]4CC[C@H](C(=O)O)CC4)n4ncnc(N)c34)[nH]c12 [OSI-027] + Cc1nc(NC(=O)N2CCC[C@H]2C(N)=O)sc1-c1ccnc(C(C)(C)C(F)(F)F)c1 [Alpelisib] (partner 2 µM)
Procedure, shortened: as §1

SK-MES-1
relative viability (Vemurafenib + Navitoclax; first compound 0.03162 µM): 1.25
relative viability (Vemurafenib + Navitoclax; first compound 0.1 µM): 1.3
relative viability (Vemurafenib + Navitoclax; first compound 0.3162 µM): 1.27
relative viability (Vemurafenib + Navitoclax; first compound 1 µM): 1.13
relative viability (Vemurafenib + Alpelisib; first compound 0.03162 µM): 0.829
relative viability (Vemurafenib + Alpelisib; first compound 0.1 µM): 0.574
relative viability (Vemurafenib + Alpelisib; first compound 0.3162 µM): 0.723
relative viability (Vemurafenib + Alpelisib; first compound 1 µM): 0.776
relative viability (OSI-027 + Foretinib; first compound 0.01 µM): 0.874
relative viability (OSI-027 + Foretinib; first compound 0.03162 µM): 1.1
relative viability (OSI-027 + Foretinib; first compound 0.1 µM): 0.926
relative viability (OSI-027 + Foretinib; first compound 0.3162 µM): 0.69
relative viability (OSI-027 + Foretinib; first compound 1 µM): 0.447
relative viability (OSI-027 + Alpelisib; first compound 0.01 µM): 0.898
relative viability (OSI-027 + Alpelisib; first compound 0.03162 µM): 0.841
relative viability (OSI-027 + Alpelisib; first compound 0.1 µM): 0.811
relative viability (OSI-027 + Alpelisib; first compound 0.3162 µM): 0.534
relative viability (OSI-027 + Alpelisib; first compound 1 µM): 0.337

LCLC-97TM1
relative viability (Vemurafenib + Navitoclax; first compound 0.03162 µM): 0.411
relative viability (Vemurafenib + Navitoclax; first compound 0.1 µM): 0.371
relative viability (Vemurafenib + Navitoclax; first compound 0.3162 µM): 0.533
relative viability (Vemurafenib + Navitoclax; first compound 1 µM): 0.486
relative viability (Vemurafenib + Alpelisib; first compound 0.03162 µM): 0.26
relative viability (Vemurafenib + Alpelisib; first compound 0.1 µM): 0.233
relative viability (Vemurafenib + Alpelisib; first compound 0.3162 µM): 0.275
relative viability (Vemurafenib + Alpelisib; first compound 1 µM): 0.262
relative viability (OSI-027 + Foretinib; first compound 0.01 µM): 0.969
relative viability (OSI-027 + Foretinib; first compound 0.03162 µM): 0.927
relative viability (OSI-027 + Foretinib; first compound 0.1 µM): 0.994
relative viability (OSI-027 + Foretinib; first compound 0.3162 µM): 0.584
relative viability (OSI-027 + Foretinib; first compound 1 µM): 0.432
relative viability (OSI-027 + Alpelisib; first compound 0.01 µM): 0.208
relative viability (OSI-027 + Alpelisib; first compound 0.03162 µM): 0.207
relative viability (OSI-027 + Alpelisib; first compound 0.1 µM): 0.203
relative viability (OSI-027 + Alpelisib; first compound 0.3162 µM): 0.145
relative viability (OSI-027 + Alpelisib; first compound 1 µM): 0.123

NCI-H596
relative viability (Vemurafenib + Navitoclax; first compound 0.03162 µM): 0.93
relative viability (Vemurafenib + Navitoclax; first compound 0.1 µM): 0.728
relative viability (Vemurafenib + Navitoclax; first compound 0.3162 µM): 1.04
relative viability (Vemurafenib + Navitoclax; first compound 1 µM): 0.842
relative viability (Vemurafenib + Alpelisib; first compound 0.03162 µM): 0.526
relative viability (Vemurafenib + Alpelisib; first compound 0.1 µM): 0.48
relative viability (Vemurafenib + Alpelisib; first compound 0.3162 µM): 0.475
relative viability (Vemurafenib + Alpelisib; first compound 1 µM): 0.42
relative viability (OSI-027 + Foretinib; first compound 0.01 µM): 0.834
relative viability (OSI-027 + Foretinib; first compound 0.03162 µM): 0.923
relative viability (OSI-027 + Foretinib; first compound 0.1 µM): 0.781
relative viability (OSI-027 + Foretinib; first compound 0.3162 µM): 0.59
relative viability (OSI-027 + Foretinib; first compound 1 µM): 0.602
relative viability (OSI-027 + Alpelisib; first compound 0.01 µM): 0.432
relative viability (OSI-027 + Alpelisib; first compound 0.03162 µM): 0.534
relative viability (OSI-027 + Alpelisib; first compound 0.1 µM): 0.503
relative viability (OSI-027 + Alpelisib; first compound 0.3162 µM): 0.503
relative viability (OSI-027 + Alpelisib; first compound 1 µM): 0.354

BEN
relative viability (Vemurafenib + Navitoclax; first compound 0.03162 µM): 0.0514
relative viability (Vemurafenib + Navitoclax; first compound 0.1 µM): 0.0623
relative viability (Vemurafenib + Navitoclax; first compound 0.3162 µM): 0.0526
relative viability (Vemurafenib + Navitoclax; first compound 1 µM): 0.0536
relative viability (Vemurafenib + Alpelisib; first compound 0.03162 µM): 0.966
relative viability (Vemurafenib + Alpelisib; first compound 0.1 µM): 0.98
relative viability (Vemurafenib + Alpelisib; first compound 0.3162 µM): 0.793
relative viability (Vemurafenib + Alpelisib; first compound 1 µM): 0.784
relative viability (OSI-027 + Foretinib; first compound 0.01 µM): 0.475
relative viability (OSI-027 + Foretinib; first compound 0.03162 µM): 0.617
relative viability (OSI-027 + Foretinib; first compound 0.1 µM): 0.371
relative viability (OSI-027 + Foretinib; first compound 0.3162 µM): 0.3
relative viability (OSI-027 + Foretinib; first compound 1 µM): 0.258
relative viability (OSI-027 + Alpelisib; first compound 0.01 µM): 1.02
relative viability (OSI-027 + Alpelisib; first compound 0.03162 µM): 0.695
relative viability (OSI-027 + Alpelisib; first compound 0.1 µM): 0.67
relative viability (OSI-027 + Alpelisib; first compound 0.3162 µM): 0.447
relative viability (OSI-027 + Alpelisib; first compound 1 µM): 0.319
